Experimental data: patent US12180193B2, “Accelerating fibrosarcoma protein degrading compounds and associated methods of use” (Arvinas Operations, Inc., priority 2020, dated 2024)
Like-named read-outs stand apart in the source and are kept apart here.

Tests used:
BRAF V600E = target: T1, BRAF V600E (Homo sapiens, UniProt P15056, V600E); experiment: Cellular assay of target protein degradation, T-Rex 293 cells stably transfected with HA-BRAF_V600E (HA immunofluorescence, high content imaging); type: cell-based
T1 construct: expressed in transfected cells
In short: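 Doxycycline-induced (1 ng/mL) cells were treated 24 h at 37 °C with compound at 1 μM to 0.1 nM final in 0.1% DMSO. After fixation, permeabilization and blocking, anti-HA staining was imaged by high-content reading; DC50 and Dmax (% of control) were derived.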

BRAF G466V = target: T2, BRAF G466V (Homo sapiens, UniProt P15056, G466V); experiment: Cellular assay of target protein degradation, T-Rex 293 cells stably transfected with HA-BRAF G466V (HA immunofluorescence, high content imaging); type: cell-based
T2 construct: expressed in transfected cells
In short: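 Cells expressing doxycycline-induced (0.75 ng/mL) HA-BRAF G466V were treated with compound at 30 nM to 3 pM in 0.1% DMSO for 24 hours at 37° C. After fixation and permeabilization, HA was immunostained and quantified by high content imaging to derive DC50 and Dmax.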

[1] = maximum degradation observed, T-Rex 293 HA-BRAF V600E
[2] = maximum degradation observed, T-Rex 293 HA-BRAF G466V
[3] = half maximal degradation, T-Rex 293 HA-BRAF V600E; read-out: BRaf V600E DC50
[4] = half maximal degradation, T-Rex 293 HA-BRAF G466V; read-out: BRaf G466V DC50

T1 sequence (P15056 whole entry V600E): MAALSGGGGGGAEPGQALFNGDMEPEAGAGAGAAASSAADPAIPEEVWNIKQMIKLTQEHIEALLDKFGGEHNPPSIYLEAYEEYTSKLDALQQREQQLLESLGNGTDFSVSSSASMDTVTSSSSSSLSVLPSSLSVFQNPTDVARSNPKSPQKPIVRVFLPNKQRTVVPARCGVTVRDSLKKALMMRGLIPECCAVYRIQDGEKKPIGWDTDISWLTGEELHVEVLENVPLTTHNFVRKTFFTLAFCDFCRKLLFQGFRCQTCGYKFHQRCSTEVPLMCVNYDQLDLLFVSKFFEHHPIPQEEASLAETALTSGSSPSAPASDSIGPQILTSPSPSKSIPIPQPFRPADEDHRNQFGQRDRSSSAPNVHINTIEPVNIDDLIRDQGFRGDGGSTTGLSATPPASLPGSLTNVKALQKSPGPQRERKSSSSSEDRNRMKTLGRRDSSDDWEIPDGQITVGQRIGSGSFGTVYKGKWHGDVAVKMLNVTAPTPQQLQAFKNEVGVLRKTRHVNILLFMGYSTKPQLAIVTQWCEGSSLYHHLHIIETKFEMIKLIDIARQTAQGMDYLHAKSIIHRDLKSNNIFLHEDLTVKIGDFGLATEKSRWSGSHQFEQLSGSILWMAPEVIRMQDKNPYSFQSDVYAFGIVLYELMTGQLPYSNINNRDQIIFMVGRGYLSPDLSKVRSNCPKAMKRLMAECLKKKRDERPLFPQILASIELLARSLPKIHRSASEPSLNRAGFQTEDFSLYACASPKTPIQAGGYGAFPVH
T2 sequence (P15056 whole entry G466V): as the sequence (P15056 whole entry V600E) above, with G466V, E600V counted along it

| Compound | Dmax (BRAF V600E; [1]) | Dmax (BRAF G466V; [2]) | DC50 (BRAF V600E; [3]) | DC50 (BRAF G466V; [4]) | DC50 (BRAF V600E; read-out: BRaf V600E DC50; half maximal degradation, T-Rex 293 HA-BRAF V600E) | DC50 (BRAF G466V; read-out: BRaf G466V DC50; half maximal degradation, T-Rex 293 HA-BRAF G466V) |
| --- | --- | --- | --- | --- | --- | --- |
| CC(C)(C1CCN(c2ccc(-c3cnc4[nH]cc(C(=O)c5c(F)ccc(NS(=O)(=O)N6CC[C@@H](F)C6)c5F)c4c3)cc2)CC1)N1CCN(c2ccc3c(c2)CN(C2CCC(=O)NC2=O)C3=O)CC1 (stereo partly drawn) [Compound 97, (3R)-N-[3-(5-{4-[4-(2-{4-[2-(2,6-dioxopiperidin-3-yl)-1-oxo-2,3-dihydro-1H-isoindol-5-yl]piperazin-1-yl}propan-2-yl)piperidin-1-yl]phenyl}-1H-pyrrolo[2,3-b]pyridine-3-carbonyl)-2,4-difluorophenyl]-3-fluoropyrrolidine-1-sulfonamide] | 35 to 70% | > 70% | – | – | 0.005 to 0.05 µM | 0.001 to 0.01 µM |
| O=C1CCC(N2Cc3cc(N4CC(C5CN(c6ccc(-c7cnc8[nH]cc(C(=O)c9c(F)ccc(NS(=O)(=O)N%10CC[C@@H](F)C%10)c9F)c8c7)cc6)C5)C4)ccc3C2=O)C(=O)N1 (stereo partly drawn) [Compound 159, (3R)-N-{3-[5-(4-{1′-[2-(2,6-dioxopiperidin-3-yl)-1-oxo-2,3-dihydro-1H-isoindol-5-yl]-[3,3′-biazetidin]-1-yl}phenyl)-1H-pyrrolo[2,3-b]pyridine-3-carbonyl]-2,4-difluorophenyl}-3-fluoropyrrolidine-1-sulfonamide] | – | – | > 0.5 µM | > 0.03 µM | – | – |
| O=C1CC[C@@H](NC(=O)c2ccc(N3CCN(CC4CCN(c5ccc(-c6cnc7[nH]cc(C(=O)c8c(F)ccc(NS(=O)(=O)N9CC[C@@H](F)C9)c8F)c7c6)cc5)CC4)CC3)cc2F)C(=O)N1 [Compound 342, 4-(4-{[1-(4-{3-[2,6-difluoro-3-({[(3R)-3-fluoropyrrolidin-1-yl]sulfonyl}amino)benzoyl]-1H-pyrrolo[2,3-b]pyridin-5-yl}phenyl)piperidin-4-yl]methyl}piperazin-1-yl)-N-[(3R)-2,6-dioxopiperidin-3-yl]-2-fluorobenzamide] | < 35% | 35 to 70% | 0.05 to 0.5 µM | 0.001 to 0.01 µM | – | – |
| O=C1CCC(N2Cc3cc(N4CCC(N5C[C@@H]6C[C@H]5CN(c5ccc(-c7cnc8[nH]cc(C(=O)c9c(F)ccc(NS(=O)(=O)N%10CC[C@@H](F)C%10)c9F)c8c7)cc5)C6)CC4)ccc3C2=O)C(=O)N1 (stereo partly drawn) [Compound 16, (3R)-N-[3-(5-{4-[(1S,5S)-6-{1-[2-(2,6-dioxopiperidin-3-yl)-1-oxo-2,3-dihydro-1H-isoindol-5-yl]piperidin-4-yl}-3,6-diazabicyclo[3.2.1]octan-3-yl]phenyl}-1H-pyrrolo[2,3-b]pyridine-3-carbonyl)-2,4-difluorophenyl]-3-fluoropyrrolidine-1-sulfonamide] | 35 to 70% | 35 to 70% | 0.05 to 0.5 µM | 0.001 to 0.01 µM | – | – |
| O=C1CC[C@H](N2Cc3cc(C4CCN(CC5CCN(c6ccc(-c7cnc8[nH]cc(C(=O)c9c(F)ccc(NS(=O)(=O)CCO)c9F)c8c7)cc6)CC5)CC4)ccc3C2=O)C(=O)N1 [Compound 282, N-{3-[5-(4-{4-[(4-{2-[(3S)-2,6-dioxopiperidin-3-yl]-1-oxo-2,3-dihydro-1H-isoindol-5-yl}piperidin-1-yl)methyl]piperidin-1-yl}phenyl)-1H-pyrrolo[2,3-b]pyridine-3-carbonyl]-2,4-difluorophenyl}-2-hydroxyethane-1-sulfonamide] | 35 to 70% | > 70% | 0.05 to 0.5 µM | 0.001 to 0.01 µM | – | – |
| COc1cc(N2CC3(CN(CC4CCN(c5ccc(-c6cnc7[nH]cc(C(=O)c8c(F)ccc(NS(=O)(=O)N9CC[C@@H](F)C9)c8F)c7c6)cc5)CC4)C3)C2)cc(F)c1C(=O)NC1CCC(=O)NC1=O (stereo partly drawn) [Compound 348, 4-(6-{[1-(4-{3-[2,6-difluoro-3-({[(3R)-3-fluoropyrrolidin-1-yl]sulfonyl}amino)benzoyl]-1H-pyrrolo[2,3-b]pyridin-5-yl}phenyl)piperidin-4-yl]methyl}-2,6-diazaspiro[3.3]heptan-2-yl)-N-(2,6-dioxopiperidin-3-yl)-2-fluoro-6-methoxybenzamide] | 35 to 70% | > 70% | 0.005 to 0.05 µM | 0.001 to 0.01 µM | – | – |
| CN(CCN1CCN(c2ccc3c(c2)CN(C2CCC(=O)NC2=O)C3=O)CC1)[C@H]1CC[C@H](Oc2ccc(-c3cnc4[nH]cc(C(=O)c5c(F)ccc(NS(=O)(=O)N6CC[C@@H](F)C6)c5F)c4c3)cc2)CC1 (stereo partly drawn) [Compound 145, (3R)-N-{2,4-difluoro-3-[5-(4-{[(1r,4r)-4-[(2-{4-[2-(2,6-dioxopiperidin-3-yl)-1-oxo-2,3-dihydro-1H-isoindol-5-yl]piperazin-1-yl}ethyl)(methyl)amino]cyclohexyl]oxy}phenyl)-1H-pyrrolo[2,3-b]pyridine-3-carbonyl]phenyl}-3-fluoropyrrolidine-1-sulfonamide] | 35 to 70% | > 70% | 0.005 to 0.05 µM | 0.001 to 0.01 µM | – | – |
| O=C1CC[C@H](N2Cc3cc([C@H](O)CCN4CC5(C4)CN(c4ccc(-c6cnc7[nH]cc(C(=O)c8c(F)ccc(NS(=O)(=O)N9CC[C@@H](F)C9)c8F)c7c6)cc4)C5)ccc3C2=O)C(=O)N1 [Compound 105, (3R)—N-[3-[5-[4-[6-[(3R)-3-[2-[(3S)-2,6-dioxo-3-piperidyl]-1-oxo-isoindolin-5-yl]-3-hydroxy-propyl]-2,6-diazaspiro[3.3]heptan-2-yl]phenyl]-1H-pyrrolo[2,3-b]pyridine-3-carbonyl]-2,4-difluoro-phenyl]-3-fluoro-pyrrolidine-1-sulfonamide] | 35 to 70% | 35 to 70% | 0.005 to 0.05 µM | 0.001 to 0.01 µM | – | – |

The next lines start with results.

| Dmax (BRAF V600E; [1]) | Dmax (BRAF G466V; [2]) | DC50 (BRAF V600E; [3]) | DC50 (BRAF G466V; [4]) | Compound | DC50 (BRAF V600E; read-out: BRaf V600E DC50; half maximal degradation, T-Rex 293 HA-BRAF V600E) | DC50 (BRAF G466V; read-out: BRaf G466V DC50; half maximal degradation, T-Rex 293 HA-BRAF G466V) |
| --- | --- | --- | --- | --- | --- | --- |
| 35 to 70% | – | 0.005 to 0.05 µM | > 0.03 µM | O=C1CC[C@H](N2Cc3cc(C[C@@H](O)CN4CCN(c5ccc(-c6cnc7[nH]cc(C(=O)c8c(F)ccc(NS(=O)(=O)N9CC[C@@H](F)C9)c8F)c7c6)cc5)CC4)ccc3C2=O)C(=O)N1 [Compound 82, (3R)-N-{3-[5-(4-{4-[(2R)-3-{2-[(3S)-2,6-dioxopiperidin-3-yl]-1-oxo-2,3-dihydro-1H-isoindol-5-yl}-2-hydroxypropyl]piperazin-1-yl}phenyl)-1H-pyrrolo[2,3-b]pyridine-3-carbonyl]-2,4-difluorophenyl}-3-fluoropyrrolidine-1-sulfonamide] | – | – |
| 35 to 70% | > 70% | 0.005 to 0.05 µM | 0.001 to 0.01 µM | O=C1CCC(N2Cc3cc([C@H](O)CN4CC5(C4)CN(c4ccc(-c6cnc7[nH]cc(C(=O)c8c(F)ccc(NS(=O)(=O)N9CC[C@@H](F)C9)c8F)c7c6)cc4)C5)ccc3C2=O)C(=O)N1 (stereo partly drawn) [Compound 299, (3R)-N-{3-[5-(4-{6-[(2S)-2-[2-(2,6-dioxopiperidin-3-yl)-1-oxo-2,3-dihydro-1H-isoindol-5-yl]-2-hydroxyethyl]-2,6-diazaspiro[3.3]heptan-2-yl}phenyl)-1H-pyrrolo[2,3-b]pyridine-3-carbonyl]-2,4-difluorophenyl}-3-fluoropyrrolidine-1-sulfonamide] | – | – |
| 35 to 70% | > 70% | 0.005 to 0.05 µM | < 0.001 µM | COc1cc(N2CC3(CN(CC4CCN(c5ccc(-c6cnc7[nH]cc(C(=O)c8c(F)ccc(NS(=O)(=O)N9CC[C@@H](F)C9)c8F)c7c6)cc5F)CC4)C3)C2)cc2c1C(=O)N(C1CCC(=O)NC1=O)C2 (stereo partly drawn) [Compound 132, (3R)-N-[3-(5-{4-[4-({6-[2-(2,6-dioxopiperidin-3-yl)-7-methoxy-1-oxo-2,3-dihydro-1H-isoindol-5-yl]-2,6-diazaspiro[3.3]heptan-2-yl}methyl)piperidin-1-yl]-3-fluorophenyl}-1H-pyrrolo[2,3-b]pyridine-3-carbonyl)-2,4-difluorophenyl]-3-fluoropyrrolidine-1-sulfonamide] | – | – |
| < 35% | 35 to 70% | 0.005 to 0.05 µM | 0.001 to 0.01 µM | O=C1CCC(N2Cc3cc(N4CCC(C5CCN(c6ccc(-c7cnc8[nH]cc(C(=O)c9c(F)ccc(NS(=O)(=O)N%10CC[C@@H](F)C%10)c9F)c8c7)cc6)CC5)CC4)ccc3C2=O)C(=O)N1 (stereo partly drawn) [Compound 214, (3R)-N-{3-[5-(4-{1′-[2-(2,6-dioxopiperidin-3-yl)-1-oxo-2,3-dihydro-1H-isoindol-5-yl]-[4,4′-bipiperidin]-1-yl}phenyl)-1H-pyrrolo[2,3-b]pyridine-3-carbonyl]-2,4-difluorophenyl}-3-fluoropyrrolidine-1-sulfonamide] | – | – |
| 35 to 70% | > 70% | 0.005 to 0.05 µM | 0.001 to 0.01 µM | COc1cc(N2CCC(CN3CC4(C3)CN(c3ccc(-c5cnc6[nH]cc(C(=O)c7c(F)ccc(NS(=O)(=O)N8CC[C@@H](F)C8)c7F)c6c5)cc3)C4)CC2)ccc1C(=O)N[C@H]1CCC(=O)NC1=O [Compound 352, 4-(4-{[6-(4-{3-[2,6-difluoro-3-({[(3R)-3-fluoropyrrolidin-1-yl]sulfonyl}amino)benzoyl]-1H-pyrrolo[2,3-b]pyridin-5-yl}phenyl)-2,6-diazaspiro[3.3]heptan-2-yl]methyl}piperidin-1-yl)-N-[(3S)-2,6-dioxopiperidin-3-yl]-2-methoxybenzamide] | – | – |
| 35 to 70% | > 70% | < 0.005 µM | < 0.001 µM | O=C1CC[C@H](N2Cc3cc(C4CCN(CC5CCN(c6ccc(-c7cnc8[nH]cc(C(=O)c9c(F)ccc(NS(=O)(=O)N%10CC[C@@H](F)C%10)c9F)c8c7)cc6)CC5)CC4)ccc3C2=O)C(=O)N1 [Compound 160, (3R)—N-[3-[5-[4-[4-[[4-[2-[(3S)-2,6-dioxo-3-piperidyl]-1-oxo-isoindolin-5-yl]-1-piperidyl]methyl]-1-piperidyl]phenyl]-1H-pyrrolo[2,3-b]pyridine-3-carbonyl]-2,4-difluoro-phenyl]-3-fluoro-pyrrolidine-1-sulfonamide] | – | – |
